Results on 3 compounds are retold here after patent US12479847B2 (DANA-FARBER CANCER INSTITUTE, INC., priority 2019, dated 2025).

What all share (assay): KINOMEscan (ScanMAX) kinase profiling
What all share (assay type): binding

Assay [1] has as its target T1, panel of 468 kinases (Homo sapiens, UniProt P31152).
T1 construct: purchased KINOMEscan (ScanMAX) service
Conditions: ERK4; 1 μM; read-out: % control.

Assay [2] has as its target T2, panel of 468 kinases (Homo sapiens, UniProt O00329).
T2 construct: purchased KINOMEscan (ScanMAX) service
T2 sequence (O00329 1-1044): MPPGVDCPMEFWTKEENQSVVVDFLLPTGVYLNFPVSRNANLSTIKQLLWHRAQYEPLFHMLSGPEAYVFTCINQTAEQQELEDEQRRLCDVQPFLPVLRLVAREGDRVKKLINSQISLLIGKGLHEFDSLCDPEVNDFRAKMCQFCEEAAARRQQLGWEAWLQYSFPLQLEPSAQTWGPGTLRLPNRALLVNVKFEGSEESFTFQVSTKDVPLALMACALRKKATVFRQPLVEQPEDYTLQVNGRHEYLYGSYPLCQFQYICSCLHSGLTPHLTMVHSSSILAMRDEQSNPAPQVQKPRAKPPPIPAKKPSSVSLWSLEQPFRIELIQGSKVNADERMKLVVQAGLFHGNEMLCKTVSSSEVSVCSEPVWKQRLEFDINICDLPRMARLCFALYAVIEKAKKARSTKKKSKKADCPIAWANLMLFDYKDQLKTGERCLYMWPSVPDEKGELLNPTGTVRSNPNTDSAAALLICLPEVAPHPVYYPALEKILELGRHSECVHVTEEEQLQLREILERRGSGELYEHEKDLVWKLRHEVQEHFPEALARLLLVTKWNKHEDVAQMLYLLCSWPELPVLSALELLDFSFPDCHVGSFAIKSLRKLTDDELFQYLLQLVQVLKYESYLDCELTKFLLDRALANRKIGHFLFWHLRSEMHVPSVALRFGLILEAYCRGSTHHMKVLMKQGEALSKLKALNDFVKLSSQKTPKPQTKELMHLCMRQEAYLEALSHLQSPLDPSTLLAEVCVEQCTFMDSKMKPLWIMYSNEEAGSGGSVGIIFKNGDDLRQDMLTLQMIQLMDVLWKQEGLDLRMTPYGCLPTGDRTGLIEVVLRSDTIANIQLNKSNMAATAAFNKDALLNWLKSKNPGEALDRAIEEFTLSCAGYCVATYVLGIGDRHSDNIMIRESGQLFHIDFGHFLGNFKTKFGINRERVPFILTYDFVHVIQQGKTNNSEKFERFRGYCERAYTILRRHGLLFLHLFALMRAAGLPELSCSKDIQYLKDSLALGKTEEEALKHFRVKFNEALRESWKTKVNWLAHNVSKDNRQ
Conditions: PIK3CD; 1 μM; read-out: % control.

The target of assay [3] is T3, panel of 468 kinases (Homo sapiens, UniProt Q06187).
T3 construct: purchased KINOMEscan (ScanMAX) service
Conditions: BTK; 1 μM; read-out: % control.

Assay [4] concerns the target T4, panel of 468 kinases (Homo sapiens, UniProt Q9NRP7).
T4 construct: purchased KINOMEscan (ScanMAX) service
T4 sequence (Q9NRP7 1-1315): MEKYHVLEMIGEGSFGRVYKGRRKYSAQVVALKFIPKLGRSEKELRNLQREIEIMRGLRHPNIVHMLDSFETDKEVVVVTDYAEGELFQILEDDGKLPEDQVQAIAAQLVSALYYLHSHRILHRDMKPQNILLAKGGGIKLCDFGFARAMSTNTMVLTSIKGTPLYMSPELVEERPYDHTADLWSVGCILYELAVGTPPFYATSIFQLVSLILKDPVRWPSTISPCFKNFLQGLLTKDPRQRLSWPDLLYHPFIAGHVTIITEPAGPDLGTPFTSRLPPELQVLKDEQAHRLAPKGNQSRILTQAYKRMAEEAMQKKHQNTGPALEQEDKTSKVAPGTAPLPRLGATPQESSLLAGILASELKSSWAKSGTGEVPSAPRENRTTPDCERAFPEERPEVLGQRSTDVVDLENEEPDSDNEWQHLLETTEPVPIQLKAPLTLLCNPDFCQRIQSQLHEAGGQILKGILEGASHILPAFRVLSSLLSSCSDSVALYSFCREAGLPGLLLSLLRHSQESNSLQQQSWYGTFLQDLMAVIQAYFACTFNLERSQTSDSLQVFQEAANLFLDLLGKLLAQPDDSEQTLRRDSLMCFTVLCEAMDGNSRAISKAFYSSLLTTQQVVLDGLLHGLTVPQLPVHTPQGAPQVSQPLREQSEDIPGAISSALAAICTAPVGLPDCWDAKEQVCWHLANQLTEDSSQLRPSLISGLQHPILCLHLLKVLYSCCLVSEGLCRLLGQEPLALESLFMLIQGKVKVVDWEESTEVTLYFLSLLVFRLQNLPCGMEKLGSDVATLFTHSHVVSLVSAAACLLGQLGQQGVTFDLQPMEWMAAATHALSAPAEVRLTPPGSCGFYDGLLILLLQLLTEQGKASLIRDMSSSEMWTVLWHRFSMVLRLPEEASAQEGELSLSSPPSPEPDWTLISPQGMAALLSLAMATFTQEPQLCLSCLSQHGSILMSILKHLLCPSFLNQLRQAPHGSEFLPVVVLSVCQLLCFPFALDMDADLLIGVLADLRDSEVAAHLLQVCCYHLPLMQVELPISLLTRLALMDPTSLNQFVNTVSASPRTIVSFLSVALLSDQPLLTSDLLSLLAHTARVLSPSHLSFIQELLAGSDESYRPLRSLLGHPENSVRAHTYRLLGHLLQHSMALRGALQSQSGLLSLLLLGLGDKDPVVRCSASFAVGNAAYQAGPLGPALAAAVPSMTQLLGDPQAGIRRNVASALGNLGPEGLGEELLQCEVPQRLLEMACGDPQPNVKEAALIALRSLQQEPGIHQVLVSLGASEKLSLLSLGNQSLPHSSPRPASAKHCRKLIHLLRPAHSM
Conditions: STK36; 1 μM; read-out: % control.

Molecules are shown by their SMILES.

T1 sequence (P31152 whole entry): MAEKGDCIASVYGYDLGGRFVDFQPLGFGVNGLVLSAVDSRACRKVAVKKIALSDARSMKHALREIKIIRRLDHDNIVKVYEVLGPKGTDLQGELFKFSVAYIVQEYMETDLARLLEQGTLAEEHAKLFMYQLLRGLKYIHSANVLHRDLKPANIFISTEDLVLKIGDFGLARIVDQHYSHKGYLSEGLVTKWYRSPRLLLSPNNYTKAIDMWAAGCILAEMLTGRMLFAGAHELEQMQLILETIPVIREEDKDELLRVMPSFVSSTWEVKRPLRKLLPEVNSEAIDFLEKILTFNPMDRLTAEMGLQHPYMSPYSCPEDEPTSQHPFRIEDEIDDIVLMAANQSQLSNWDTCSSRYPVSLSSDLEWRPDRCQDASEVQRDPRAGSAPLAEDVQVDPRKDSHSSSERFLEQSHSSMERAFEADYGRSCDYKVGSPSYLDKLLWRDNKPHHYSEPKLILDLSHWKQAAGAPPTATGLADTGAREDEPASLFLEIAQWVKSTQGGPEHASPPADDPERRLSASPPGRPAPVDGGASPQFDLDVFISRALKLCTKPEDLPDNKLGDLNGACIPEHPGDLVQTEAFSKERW
T3 sequence (Q06187 whole entry): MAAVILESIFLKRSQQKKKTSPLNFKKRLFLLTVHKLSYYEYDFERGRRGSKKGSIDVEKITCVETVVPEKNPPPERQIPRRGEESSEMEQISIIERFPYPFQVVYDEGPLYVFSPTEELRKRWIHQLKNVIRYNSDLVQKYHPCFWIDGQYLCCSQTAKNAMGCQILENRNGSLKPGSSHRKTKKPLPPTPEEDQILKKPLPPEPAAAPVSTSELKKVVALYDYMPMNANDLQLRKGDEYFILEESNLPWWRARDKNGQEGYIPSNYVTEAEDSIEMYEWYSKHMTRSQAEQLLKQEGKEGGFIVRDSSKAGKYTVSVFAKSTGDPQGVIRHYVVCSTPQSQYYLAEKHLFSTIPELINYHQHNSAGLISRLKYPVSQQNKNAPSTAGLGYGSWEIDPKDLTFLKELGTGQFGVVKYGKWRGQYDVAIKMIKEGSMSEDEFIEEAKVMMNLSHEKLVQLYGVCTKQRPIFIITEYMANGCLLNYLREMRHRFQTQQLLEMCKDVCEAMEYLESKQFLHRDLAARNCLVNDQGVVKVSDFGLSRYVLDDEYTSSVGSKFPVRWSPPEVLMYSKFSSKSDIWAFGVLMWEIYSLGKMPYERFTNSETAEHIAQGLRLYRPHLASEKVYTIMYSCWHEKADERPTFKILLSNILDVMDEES

For the compound `CNc1nc(Nc2ccc(C(=O)N3CCC(N4CCOCC4)CC3)c3c2OCO3)nc2[nH]cc(Cl)c12` [Compound 75, (7-((5-chloro-4-(methylamino)-7H-pyrrolo[2,3-d]pyrimidin-2-yl)amino)benzo[d][1,3]dioxol-4-yl)(4-morpholinopiperidin-1-yl)methanone], the remaining binding at 1 µM was 100% in assay [1], 96% in assay [2], 98% in assay [3] and 100% in assay [4].

Consider `CNc1nc(Nc2ccc(P3(=O)CCN(C4CCOCC4)CC3)cc2OC)nc2[nH]cc(Cl)c12` [Compound 77, 4-(4-((5-chloro-4-(methylamino)-7H-pyrrolo[2,3-d]pyrimidin-2-yl)amino)-3-methoxyphenyl)-1-(tetrahydro-2H-pyran-4-yl)-1,4-azaphosphinane 4-oxide], for which the remaining binding at 1 µM in assay [1] turned out to be 100%; in assay [2], 92%; in assay [3], 100%; in assay [4], 100%.

Take `CNc1nc(Nc2ccc(S(=O)(=O)N3CCC(N4CCOCC4)CC3)cc2OC)nc2[nH]cc(Cl)c12` [Compound 12, 5-chloro-N2-(2-methoxy-4-((4-morpholinopiperidin-1-yl)sulfonyl)phenyl)-N4-methyl-7H-pyrrolo[2,3-d]pyrimidine-2,4-diamine]: the remaining binding at 1 µM came to 100% in assay [1], 96% in assay [2], 79% in assay [3] and 100% in assay [4].
